Test results from PubChem BioAssay AID330 (DTP/NCI, 2004).
Several values for one entry are separate records, joined by “and”; a condition that tells them apart may be missing. Equal entries are not always repeated. Inconclusive results and toxic doses are left out. Rule for the calls: active = survival T/C of 150% or more; inactive = T/C below 125% in these data.

Test system: P388 leukemia ip, CD2F1 mice, survival T/C
Assay: NCI In Vivo Anticancer Drug Screen. Data for tumor model P388 Leukemia (intraperitoneal) in CD2F1 (CDF1) mice
Details: endpoint: median survival time, higher = longer survival
In short: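 Mice carrying the transplanted tumor received test compound or vehicle. Survival was recorded in each group, and the value is the treated-group measurement divided by that of the vehicle-treated control group.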

[1] = dose: 12.5 mg/kg/injection, schedule: Q01DX005 (ip), vehicle: saline with Tween-80
[2] = dose: 25.0 mg/kg/injection, schedule: Q01DX005 (ip), vehicle: saline with Tween-80
[3] = dose: 50.0 mg/kg/injection, schedule: Q01DX005 (ip), vehicle: saline with Tween-80
[4] = dose: 25.0 mg/kg/injection, schedule: Q01DX005 (ip), vehicle: Klucel (hydroxypropylcellulose) (HPC)
[5] = dose: 50.0 mg/kg/injection, schedule: Q01DX005 (ip), vehicle: Klucel (hydroxypropylcellulose) (HPC)
[6] = dose: 100.0 mg/kg/injection, schedule: Q01DX005 (ip), vehicle: Klucel (hydroxypropylcellulose) (HPC)
[7] = dose: 200.0 mg/kg/injection, schedule: Q01DX005 (ip), vehicle: Klucel (hydroxypropylcellulose) (HPC)

Measured: T/C

N#Cc1c(N)nsc1N1CCOCC1
inactive: [1] 98 % of control | [2] 104 % of control | [3] 98 % of control

COc1cc2c(cc1OC)C(C)N1CCc3cc(OC)c(OC)cc3C1C2 (stereo not drawn)
inactive: dose: 1.56 mg/kg/injection, schedule: Q01DX009 (ip), vehicle: Klucel (hydroxypropylcellulose) (HPC) 103 % of control | dose: 3.12 mg/kg/injection, schedule: Q01DX009 (ip), vehicle: Klucel (hydroxypropylcellulose) (HPC) 98 % of control

CCCCCCCCCC[CH2][Sn]([CH2]CCCCCCCCCC)([CH2]CCCCCCCCCC)[CH2]CCCCCCCCCC
inactive: dose: 6.25 mg/kg/injection, schedule: Q01DX009 (ip), vehicle: saline 99 % of control | dose: 12.5 mg/kg/injection, schedule: Q01DX009 (ip), vehicle: saline 105 % of control | dose: 25.0 mg/kg/injection, schedule: Q01DX009 (ip), vehicle: saline 99 % of control

CC(=O)c1cc2c(cc1O)OC(C)(C)C=C2
inactive: [4] 101 % of control | [5] 99 % of control | [6] 91 % of control | [7] 92 % of control

O=C(CCl)OCCN1Cc2nc3sc4c(c3c(=O)n2CC1=O)CCCC4
inactive: dose: 50.0 mg/kg/injection, schedule: Q01DX009 (ip), vehicle: saline with Tween-80 97 % of control | dose: 100.0 mg/kg/injection, schedule: Q01DX009 (ip), vehicle: saline with Tween-80 94 % of control | dose: 200.0 mg/kg/injection, schedule: Q01DX009 (ip), vehicle: saline with Tween-80 112 % of control

C#CCOC1CC(C)(O)Cc2cc3c(c(O)c21)C(=O)c1c(O)cc2c(c1C3=O)OC1OC2(C)C(O)C(N(C)C)C1O (stereo not drawn)
inactive: dose: 20.0 mg/kg/injection, schedule: Q01DX009 (ip), vehicle: other 89 % of control

CC(C)NC(=O)OCc1c(COC(=O)NC(C)C)c([N+](=O)[O-])n2c1CCC2
inactive: [4] 95 % of control | [5] 99 % of control | [6] 99 % of control and 97 % of control | [7] 104 % of control and 94 % of control | dose: 400.0 mg/kg/injection, schedule: Q01DX005 (ip), vehicle: Klucel (hydroxypropylcellulose) (HPC) 100 % of control

CC1=CC(=O)C(=Ic2ccccc2)C(=O)O1
inactive: [5] 100 % of control | [6] 98 % of control | [7] 104 % of control

C(=N\Nc1nnc2c(n1)[nH]c1ccccc12)/c1ccccc1
inactive: dose: 100.0 mg/kg/injection, schedule: Q04DX002 (ip), vehicle: saline with Tween-80 89 % of control | dose: 200.0 mg/kg/injection, schedule: Q04DX002 (ip), vehicle: saline with Tween-80 90 % of control | dose: 400.0 mg/kg/injection, schedule: Q04DX002 (ip), vehicle: saline with Tween-80 98 % of control

CCCCNCCCNCCCNC(=O)c1csc(-c2csc(CCNC(=O)C(NC(=O)C(C)C(O)C(C)NC(=O)C(NC(=O)c3nc(C(CC(N)=O)NCC(N)C(N)=O)nc(N)c3C)C(OC3OC(CO)C(O)C(O)C3OC3OC(CO)C(O)C(OC(N)=O)C3O)c3cnc[nH]3)C(C)O)n2)n1 (stereo not drawn)
inactive: dose: 0.62 mg/kg/injection, schedule: Q01DX009 (ip), vehicle: water 104 % of control and 105 % of control | dose: 1.25 mg/kg/injection, schedule: Q01DX009 (ip), vehicle: water 104 % of control and 105 % of control | dose: 2.5 mg/kg/injection, schedule: Q01DX009 (ip), vehicle: water 104 % of control and 110 % of control and 117 % of control | dose: 5.0 mg/kg/injection, schedule: Q01DX009 (ip), vehicle: water 108 % of control and 117 % of control and 120 % of control | dose: 10.0 mg/kg/injection, schedule: Q01DX009 (ip), vehicle: water 104 % of control | dose: 20.0 mg/kg/injection, schedule: Q01DX009 (ip), vehicle: water 105 % of control | dose: 40.0 mg/kg/injection, schedule: Q01DX009 (ip), vehicle: water 89 % of control

O=C(O)N1CCc2c(sc3ccccc23)C1
inactive: dose: 12.5 mg/kg/injection, schedule: Q01DX001 (ip), vehicle: Klucel (hydroxypropylcellulose) (HPC) 103 % of control | dose: 25.0 mg/kg/injection, schedule: Q01DX001 (ip), vehicle: Klucel (hydroxypropylcellulose) (HPC) 98 % of control | dose: 50.0 mg/kg/injection, schedule: Q01DX001 (ip), vehicle: Klucel (hydroxypropylcellulose) (HPC) 100 % of control and 104 % of control

O=C1OC(=O)C2CC3C(CC12)C1(Cl)C(Cl)=C(Cl)C3(Cl)C1(Cl)Cl (stereo not drawn)
inactive: [5] 104 % of control | [6] 100 % of control | [7] 107 % of control

CCc1nc(N)nc(N)c1-c1ccc(NCCCN)c(N)c1
inactive: dose: 12.5 mg/kg/injection, schedule: Q01DX005 (ip), vehicle: Klucel (hydroxypropylcellulose) (HPC) 101 % of control | [4] 106 % of control | [5] 110 % of control and 97 % of control

CCOC(=O)c1nc2nc3cc(OC)c(OC)cc3cc2c(=O)[nH]1
inactive: [4] 93 % of control | [5] 87 % of control | [6] 86 % of control and 89 % of control | [7] 91 % of control

O=[N+]([O-])c1c(Cl)cc(Cl)c(-c2c(Cl)cc(Cl)c([N+](=O)[O-])c2Cl)c1Cl
inactive: dose: 25.0 mg/kg/injection, schedule: Q01DX009 (ip), vehicle: other 102 % of control | dose: 50.0 mg/kg/injection, schedule: Q01DX009 (ip), vehicle: other 106 % of control | dose: 100.0 mg/kg/injection, schedule: Q01DX009 (ip), vehicle: other 107 % of control | dose: 200.0 mg/kg/injection, schedule: Q01DX009 (ip), vehicle: other 106 % of control | dose: 400.0 mg/kg/injection, schedule: Q01DX009 (ip), vehicle: other 105 % of control

COc1cc2c(cc1OC)[C@H]1[C@H](C)c3ccc4c(c3CN1CC2)OCO4
inactive: dose: 12.5 mg/kg/injection, schedule: Q04DX002 (ip), vehicle: Klucel (hydroxypropylcellulose) (HPC) 97 % of control | dose: 25.0 mg/kg/injection, schedule: Q04DX002 (ip), vehicle: Klucel (hydroxypropylcellulose) (HPC) 95 % of control | dose: 50.0 mg/kg/injection, schedule: Q04DX002 (ip), vehicle: Klucel (hydroxypropylcellulose) (HPC) 103 % of control and 106 % of control

O=C(SCC(/C=N/Nc1ccc([N+](=O)[O-])cc1[N+](=O)[O-])c1ccccc1)c1ccccc1 (stereo not drawn)
inactive: dose: 100.0 mg/kg/injection, schedule: Q01DX001 (ip), vehicle: Klucel (hydroxypropylcellulose) (HPC) 92 % of control | dose: 200.0 mg/kg/injection, schedule: Q01DX001 (ip), vehicle: Klucel (hydroxypropylcellulose) (HPC) 89 % of control | dose: 400.0 mg/kg/injection, schedule: Q01DX001 (ip), vehicle: Klucel (hydroxypropylcellulose) (HPC) 92 % of control

O=C(O)C1Cc2c([nH]c3ccccc23)C(c2cccs2)N1 (stereo not drawn)
inactive: dose: 60.0 mg/kg/injection, schedule: Q01DX005 (ip), vehicle: Klucel (hydroxypropylcellulose) (HPC) 100 % of control | dose: 120.0 mg/kg/injection, schedule: Q01DX005 (ip), vehicle: Klucel (hydroxypropylcellulose) (HPC) 96 % of control | dose: 240.0 mg/kg/injection, schedule: Q01DX005 (ip), vehicle: Klucel (hydroxypropylcellulose) (HPC) 97 % of control

CC1(C)N=C(N)N=C(N)N1c1cccc(CCCCc2ccc(S(=O)(=O)F)cc2)c1
inactive: dose: 25.0 mg/kg/injection, schedule: Q04DX003 (ip), vehicle: saline 110 % of control

CN(C)CCCNc1nc(NCCCN(C)C)c2nc(-c3ccccc3)c(-c3ccccc3)nc2n1
inactive: [1] 97 % of control | [2] 88 % of control | [3] 88 % of control

CCc1nc2ccccc2c(=O)n1C(C)C
inactive: dose: 100.0 mg/kg/injection, schedule: Q04DX002 (ip), vehicle: saline 100 % of control | dose: 200.0 mg/kg/injection, schedule: Q04DX002 (ip), vehicle: saline 106 % of control | dose: 400.0 mg/kg/injection, schedule: Q04DX002 (ip), vehicle: saline 104 % of control

ClC1=CC(Cl)=C2N=C(N3CCCC3)N=C3N=C(C(Cl)(Cl)Cl)N=C1N32
inactive: dose: 60.0 mg/kg/injection, schedule: Q01DX005 (ip), vehicle: Klucel + Tween-80 96 % of control | dose: 120.0 mg/kg/injection, schedule: Q01DX005 (ip), vehicle: Klucel + Tween-80 96 % of control | dose: 240.0 mg/kg/injection, schedule: Q01DX005 (ip), vehicle: Klucel + Tween-80 87 % of control

c1ccc(-c2ccc[n+](CCCC[n+]3cccc(-c4ccccn4)c3)c2)nc1
inactive: dose: 7.5 mg/kg/injection, schedule: Q01DX005 (ip), vehicle: saline 106 % of control | dose: 15.0 mg/kg/injection, schedule: Q01DX005 (ip), vehicle: saline 106 % of control
